# Laboratory results reported in patent publication EP4076432B1, “COMPOSITION AND METHOD FOR THE PREVENTION AND TREATMENT OF OBESITY” (Vector Vitale IP LLC, priority 2019, dated 2021).
# Several values for one entry are separate records, joined by “and”; a condition that tells them apart may be missing. Identical values can stand only once. Entries after “also recorded” stand apart in the source; their conditions may differ.
# Tests used:
# Glucose tolerance test = type: in vivo, rats; parameters: Glucose tolerance test, 0 min (1 h after effector administration): unit not given here; conditions: for glucose levels in the glucose tolerance test: compared with the control group
# From the text: 5 animals were used within the same experimental group.
# [1] = Intraperitoneal administration of zinc preparations to intact rats (insulin, superoxide dismutase, islets of Langerhans, metals, body weight); type: in vivo; conditions: 7 injections; for accumulation of zinc in the kidney tissues / accumulation of zinc in the liver tissues: day 1 and day 7 after withdrawal
# Experimental: The current dose was calculated by zinc.
# The rat serum was prepared from whole blood.
# The total kidney and liver homogenates were centrifuged at 600 g for 15 minutes.
# The optical density was measured at 492 nm.
# [2] = Serum lipids, alkaline phosphatase activity and albumin in obesity model; type: in vivo, rats; conditions: table is an image
# From the text: Test kit // Pliva-Lachema Diagnostika. - 2008.
# The alkaline phosphatase activity was expressed in relative units.
# superoxide dismutase = assay: Serum superoxide dismutase activity in obesity model; type: in vivo; conditions: DIO rats (high-fat diet), zinc aspartate 4.5 mg/animal intragastrically every third day, week 10
# Experimental: To measure superoxide dismutase activity, a method based on the ability of this enzyme to inhibit auto-oxidation of adrenaline was used.
# Serum aliquots were added to microplate wells containing 0.2M bicarbonate buffer, pH 10. The reaction was initiated by adding 0.1% adrenaline solution in each well. A relevant volume of buffer was added to the "blank" wells to which no test sample was added. The optical density was measured at a wavelength of 347 nm using a µQuant microplate spectrophotometer (BioTek Instruments) at the 4th and 8th minute after adrenaline was added to the wells. The enzyme activity was expressed in relative units/min/mg.
# [3] = tested on: peripheral serotonergic system (duodenum); assay: Indicators of the peripheral serotonergic system (duodenum) in obesity model; type: in vivo, rats; conditions: zinc aspartate 4.5 mg/animal intragastrically every third day, week 10
# From the text: (§1) The tissue : buffer ratio was 1:10.
# The samples were reprecipitated by centrifugation. […]
# (§2) The supernatant was used in further studies.
# [4] = tested on: central serotonergic system (brain); assay: Indicators of the central serotonergic system (brain) in obesity model; type: in vivo, rats; conditions: zinc aspartate 4.5 mg/animal intragastrically every third day, week 10
# From the text: The animal's head was separated from the body and the skull was carefully cut. The brain was carefully lifted with a scalpel from the bony vault, all cranial nerves were amputated and the brain was removed from the skull. The brain was divided into two parts with a longitudinal incision made between the hemispheres.
# as §1
# (§3) The samples were reprecipitated by centrifugation.
# (§4) University. Medicine. - 2000. - 1, No. 494. - P. 40-43.
# as §2
# islets of Langerhans = assay: Morpho-functional analysis of pancreas in obesity model; type: in vivo, rats; conditions: zinc aspartate 4.5 mg/animal intragastrically every third day
# From the text: After fixation, the pieces were rinsed in tap water. Then the material was dehydrated.
# Dried preparations were stained with hematoxylin and eosin.
# [5] = tested on: pro-inflammatory (IL-1, IL-6, IL-12, IFN-γ) and anti-inflammatory (IL-4, IL-10, TGF) cytokines; assay: Serum cytokine profile in obesity model (immunoenzyme method); type: in vivo, rats; conditions: zinc aspartate 4.5 mg/animal intragastrically every third day
# Experimental: (§5) Animal serum was prepared from whole blood. […] Samples were centrifuged for 15 min at 2500 g.
# [6] = tested on: pro-inflammatory (IL-1, IL-6, IL-12, IFN-γ) and anti-inflammatory (IL-4, IL-10, TGF) cytokines; assay: Cytokine profile in adipose tissue in obesity model (immunoenzyme method); type: in vivo, rats; conditions: zinc aspartate 4.5 mg/animal intragastrically every third day, week 10
# Experimental: Adipose tissue was crushed using cold scissors then transferred to a homogenizer with a loose-fitting Teflon pestle. […] Primary homogenate thus obtained was centrifuged at 600 g for 15 minutes. The supernatant was carefully collected and re-centrifuged at 15,000 g for 15 minutes. The supernatant was then frozen and stored at -80°C until the experiments.
# The antigen solution, previously diluted with 0.1 M NaHCO3 buffer, pH 9.6, to a concentration of 10 µg/ml, was incubated in the plate wells for 12 hours at 4°C. Unbound material was removed by washing the wells three times with TBS buffer, first with 0.05% Tween-20, then without Tween-20. Non-specific binding sites were blocked by adding a solution of 5% skim milk or a solution of 1% bovine serum albumin to the plate wells and incubating them for 60 minutes at 37°C. After incubation, the wells were washed three times with TBS, first with 0.05% Tween-20, then without Tween-20. Primary antibodies were diluted in TBS in accordance with the manufacturer's instructions and incubated with the antigen for 60 min at 37°C. After washing with TBS working buffer, first with the addition of 0.05% Tween-20, then without Tween-20, the conjugate of secondary antibodies was added to the wells and incubated for 60 min at 37°C. As with the primary antibodies, secondary antibodies were diluted in TBS in accordance with the manufacturer's instructions. After the washing procedure, phenyldiamine dihydrochloride as substrate in 0.05M phosphate-citrate buffer was added to each well, followed by the addition of 0.3% hydrogen peroxide. After 10 minutes, the reaction time needed for development, 2.5 n H2SO4 was added.
# The absorbance at a wavelength of 492 nm was measured using a µQuant microplate spectrophotometer (BioTek Instruments).
# [7] = tested on: serotonergic system (serum); assay: Serum tryptophan, serotonin and monoamine oxidase activity in obesity model; type: in vivo, rats; conditions: zinc aspartate 4.5 mg/animal intragastrically every third day, week 10
# Experimental: as §5, §3, §4
# [8] = tested on: products of oxidative modification of proteins; assay: Serum levels of products of oxidative modification of proteins in obesity model; type: in vivo; conditions: DIO rats (high-fat diet), zinc aspartate 4.5 mg/animal intragastrically every third day, week 10
# Experimental: as §5
# Proteins were precipitated by adding a 20% TCA solution.
# [9] = Anthropometric values, amount and calorie content of food in high-fat diet induced obesity model; conditions: zinc aspartate 4.5 mg/animal intragastrically every third day; for BMI (g/cm^2) / Weight gain as of the end of the experiment (%): week 10
# From the text: White non-pedigree rats with an initial weight of 195-205±10 g were used in the experiment.
# Before the start of the experiment, animals were maintained on a standard diet of the vivarium. To induce obesity in experimental animals, they were fed high-fat diet which consisted of standard feed (60%), lard (10%), chicken eggs (10%), sucrose (9%), peanuts (5%), dry milk (5%) and sunflower oil (1%) (1%) (see X. H. Shen et al., Exp. Biol. and Med. 235: 47-51 (2010)).
# Animals in all groups were weighed once a week after an overnight fast. The amount of feed to be consumed by the animals was determined daily. At the end of a 10-week period of the development of obesity models, 24 hours after the last administration of the zinc isotope solution, animals were removed from their cages and decapitated.
# The body mass index (BMI) (the ratio of body weight (g) to the square of body length (cm^2)) was calculated at the end of the experiment.
# Animals with an initial weight of 195-205±10 g maintained on the standard diet of the vivarium before performing obesity models were used in the experiments.
# Animals in all groups were weighed once a week after an overnight fast. The amount of feed to be consumed by the animals was determined daily.
# [10] = 3750 µg of zinc per 1 kg intraperitoneally every other day
# [11] = 3750 µg of zinc per 1 kg intraperitoneally
# [12] = rats having obesity (high-fat diet)
# [13] = DIO rats (high-fat diet), week 10
# [14] = control rats (standard diet), week 10
structure (smiles),measurement,setting,value
"CC(=O)[O-].CC(=O)[O-].[Zn+2] [Zn acetate, Zn(CH3COO)2, reference compound]","Glucose tolerance test, 0 min (1 h after effector administration)","Glucose tolerance test; blood glucose, fast overnight, dose: 5 mg/kg in a volume of 2 ml, individual animals 1-5, 5 mg/kg",4.6 and 5.2 (2×) and 4.9 and 5.1
same,"Glucose tolerance test, 60 min (1 h after glucose administration)","Glucose tolerance test; blood glucose, glucose 3 g/kg body weight in 2 ml, dose: 5 mg/kg in a volume of 2 ml, individual animals 1-5, 5 mg/kg",7.2 (2×) and 6.9 and 7.3 and 6.8
same,glucose levels in the glucose tolerance test,Glucose tolerance test,"glucose levels also dropped, though not so strongly"
same,serum insulin levels at day 7 after the withdrawal,[1]; [10],a drop in the insulin levels to the value of those of intact/control animals
same,serum insulin levels on the first day after the drug withdrawal,[1]; [10],a significant increase
same,accumulation of zinc in the kidney tissues,[1]; [11],significantly increased
same,accumulation of zinc in the liver tissues,[1]; [11],significantly increased
"N[C@@H](CC(=O)[O-])C(=O)[O-].[Zn+2] [^64Zne, zinc aspartate]","levels of triglycerides, cholesterol and free fatty acids in the serum","[2]; animals fed a high-fat diet, zinc aspartate 2.25 mg/ml intragastrically in a volume of 2 ml",almost at the same level as in the control group
same,alkaline phosphatase activity,"[2]; serum, animals on high-fat diet treated intragastrically",higher than both in the group of diet-induced obesity models and in the control group
same,albumin values,"[2]; serum, obese animals treated intragastrically, versus untreated obese animals",had no effect on albumin values
same,"Superoxide dismutase activity, RU/ min per mg protein",superoxide dismutase,4.5±0.43 # RU/ min per mg protein
same,"Indoleamine dioxygenase activity, µmol/mg protein",[3]; DIO rats (high-fat diet),1768 ± 274 µmol/mg protein
same,"Monoamine oxidase activity, RU/mg protein",[3]; DIO rats (high-fat diet),1.72 ±0.03 RU/mg protein
same,Serotonin,[3]; DIO rats (high-fat diet),9.73 ± 0.82 µg/g
same,Tryptophan,[3]; DIO rats (high-fat diet),89.4 ± 8.99 µg/g
same,"Tryptophan decarboxylase activity, RU/mg protein",[3]; DIO rats (high-fat diet),0.78 ± 0.19 RU/mg protein
same,"Tryptophan hydroxylase activity, RU/mg protein",[3]; DIO rats (high-fat diet),253 ± 58 RU/mg protein
same,"Indoleamine dioxygenase activity, µmol/mg protein",[3]; control rats (standard diet),2150 ± 231 µmol/mg protein
same,"Monoamine oxidase activity, RU/mg protein",[3]; control rats (standard diet),3.82 ±0.07 RU/mg protein
same,Serotonin,[3]; control rats (standard diet),7.41 ± 0.54 µg/g
same,Tryptophan,[3]; control rats (standard diet),154.7 ± 13.6 µg/g
same,"Tryptophan decarboxylase activity, RU/mg protein",[3]; control rats (standard diet),0.79 ± 0.22 RU/mg protein
same,"Tryptophan hydroxylase activity, RU/mg protein",[3]; control rats (standard diet),375 ± 61 RU/mg protein
same,"Indoleamine dioxygenase activity, µmol/mg protein",[4]; DIO rats (high-fat diet),2007 ± 175 µmol/mg protein
same,"Monoamine oxidase activity, RU/mg protein",[4]; DIO rats (high-fat diet),0.99±0.08 RU/mg protein
same,Serotonin,[4]; DIO rats (high-fat diet),20.1 ± 3.21 µg/g
same,Tryptophan,[4]; DIO rats (high-fat diet),31.56 ± 2.14 µg/g
same,"Tryptophan decarboxylase activity, RU/mg protein",[4]; DIO rats (high-fat diet),1.86 ± 0.37 RU/mg protein
same,"Tryptophan hydroxylase activity, RU/mg protein",[4]; DIO rats (high-fat diet),286 ± 17 RU/mg protein
same,"Indoleamine dioxygenase activity, µmol/mg protein",[4]; control rats (standard diet),1178 ± 267 µmol/mg protein
same,"Monoamine oxidase activity, RU/mg protein",[4]; control rats (standard diet),0.91 ±0.06 RU/mg protein
same,Serotonin,[4]; control rats (standard diet),25.51 ± 2.71 µg/g
same,Tryptophan,[4]; control rats (standard diet),87.71 ± 3.41 µg/g
same,"Tryptophan decarboxylase activity, RU/mg protein",[4]; control rats (standard diet),1.63 ± 0.41 RU/mg protein
same,"Tryptophan hydroxylase activity, RU/mg protein",[4]; control rats (standard diet),291 ± 29 RU/mg protein
same,"cross-sectional surface area of the islets of Langerhans, increase compared with the obesity group",islets of Langerhans; [12],43%
same,"cross-sectional surface area of the islets of Langerhans, lower than the control value",islets of Langerhans; [12],29%
same,"cross-sectional surface area of the islets of Langerhans, decrease compared with the control group",islets of Langerhans; rats that ate a standard diet,39%
same,IFN-γ level,[5]; [13],4.1±1.2 RU/mg protein
same,IL-1 level,[5]; [13],4.2±0.4 RU/mg protein
same,IL-4 level,[5]; [13],5.6±1.6 RU/mg protein
same,IL-6 level,[5]; [13],5.1±0.4 RU/mg protein
same,IL-10 level,[5]; [13],6.8±1.1 # RU/mg protein
same,IL-12 level,[5]; [13],2.4±0.06 RU/mg protein
same,TGF level,[5]; [13],5.7±0.3 # RU/mg protein
same,TGF level,"[5]; DIO rats (high-fat diet), week 10, listed as Zinc",5.7±0.3 RU/mg protein
same,IFN-γ level,[5]; [14],4.6±0.6 RU/mg protein
same,IL-1 level,[5]; [14],3.5±0.7 RU/mg protein
same,IL-4 level,[5]; [14],4.6±0.8 RU/mg protein
same,IL-6 level,[5]; [14],4.3±0.2 RU/mg protein
same,IL-10 level,[5]; [14],4.1±0.5 RU/mg protein
same,IL-12 level,[5]; [14],0.3±0.04 RU/mg protein
same,TGF level,[5]; [14],4.1±0.4 RU/mg protein
same,IFN-γ level,[6]; DIO rats (high-fat diet),4.9±0.8 RU/mg protein
same,IL-4 level,[6]; DIO rats (high-fat diet),5.1±1.2 RU/mg protein
same,IL-6 level,[6]; DIO rats (high-fat diet),6.1±0.7 RU/mg protein
same,IL-10 level,[6]; DIO rats (high-fat diet),5.8±0.8 RU/mg protein
same,IL-12 level,[6]; DIO rats (high-fat diet),1.99±0.01 RU/mg protein
same,TGF level,[6]; DIO rats (high-fat diet),5.2±0.9 RU/mg protein
same,IFN-γ level,[6]; control rats (standard diet),5.0±0.8 RU/mg protein
same,IL-1 level,[6]; control rats (standard diet),4.9±1.7 RU/mg protein
same,IL-4 level,[6]; control rats (standard diet),5.0±0.4 RU/mg protein
same,IL-6 level,[6]; control rats (standard diet),5.4±0.3 RU/mg protein
same,IL-10 level,[6]; control rats (standard diet),4.9±0.2 RU/mg protein
same,IL-12 level,[6]; control rats (standard diet),1.0±0.03 RU/mg protein
same,TGF level,[6]; control rats (standard diet),5.1±0.6 RU/mg protein
same,glucose levels in the glucose tolerance test,Glucose tolerance test; listed as zinc isotope,a drop in glucose concentration; also recorded: a decrease in glucose levels
same,glucose levels in the glucose tolerance test,Glucose tolerance test; listed as zinc isotope ^64Zn,a significant decrease in glucose levels
same,body weight of rats,[1]; [10],a significant increase in the body weight
same,serum insulin levels at day 7 after the withdrawal,[1]; [10],insulin levels in the blood of animals increased
same,serum insulin levels on the first day after the drug withdrawal,[1]; [10],slightly higher than in the group of intact animals
same,serum insulin levels at day 7 after the withdrawal,"[1]; 3750 µg of zinc per 1 kg intraperitoneally every other day, listed as zinc isotope",a significant increase in the insulin levels
same,accumulation of zinc in the kidney tissues,[1]; [11],significantly increased
same,accumulation of zinc in the liver tissues,[1]; [11],significantly increased
same,area of islets of Langerhans,"[1]; 3750 µg of zinc per 1 kg intraperitoneally, day 7 after the last administration, compared to control group and zinc acetate group",a significant increase in the islet area
same,"Monoamine oxylase activity, RU/mg protein",[7]; DIO rats (high-fat diet),3.11±0.08 RU/mg protein
same,Serotonin,[7]; DIO rats (high-fat diet),6.33 ± 0.51 µg/g
same,Tryptophan,[7]; DIO rats (high-fat diet),66.65 ± 9.62 µg/g
same,"Monoamine oxylase activity, RU/mg protein",[7]; control rats (standard diet),2.52±0.03 RU/mg protein
same,Serotonin,[7]; control rats (standard diet),10.16 ± 0.62 µg/g
same,Tryptophan,[7]; control rats (standard diet),56.12 ± 7.58 µg/g
same,"Aldehyde-dinitrophenyl-hydrazones, nmol/mg protein",[8],0.253±0.012 nmol/mg protein
same,"Ketone-dinitrophenyl-hydrazones, nmol/mg protein",[8],0.200±0.024 nmol/mg protein
same,Amount of food consumed,[9]; DIO rats (high-fat diet),29 g/day
same,Calorie content of food,[9]; DIO rats (high-fat diet),823 kJ/day
same,BMI (g/cm^2),[9]; DIO rats (high-fat diet),0.65 g/cm^2
same,Weight gain as of the end of the experiment (%),[9]; DIO rats (high-fat diet),62%
same,Amount of food consumed,[9]; control rats (standard diet),32 g/day
same,Calorie content of food,[9]; control rats (standard diet),490 kJ/day
same,BMI (g/cm^2),[9]; control rats (standard diet),0.59 g/cm^2
same,Weight gain as of the end of the experiment (%),[9]; control rats (standard diet),59%
